According to ChEMBL document CHEMBL3627668, “Structure-activity relationships of furazano[3,4-b]pyrazines as mitochondrial uncouplers” (Bioorg Med Chem Lett, 2015):

Assays:
L6 [1] = assay: Induction of mitochondrial uncoupling in rat L6 cells assessed as stimulation of cellular oxygen consumption relative to control; assay type: functional
L6 [2] = assay: Induction of mitochondrial uncoupling in rat L6 cells assessed as stimulation of cellular oxygen consumption; assay type: functional, cell-based
[3] = Rattus norvegicus, L6, read-out: EC50

Row | SMILES | %max (L6 [1]) [%] | EC50 (L6 [2]; l6) | EC50 (L6 [2]; [3]) [nM]
1 | CCCCCCNc1nc2nonc2nc1NCCCCCC | 160.2 | ND(Insoluble) | 
2 | CCCNc1nc2nonc2nc1NCCC | 98 | ND(Insoluble) | 
3 | CCCCNc1nc2nonc2nc1NCCCC | 116 | ND(Insoluble) | 
4 | c1ccc(Oc2nc3nonc3nc2Oc2ccccc2)cc1 | 98.3 | ND(Insoluble) | 
5 | c1ccc(Nc2nc3nonc3nc2Nc2ccccc2)cc1 | 172.8 | ND(Insoluble) | 
6 | Fc1cccc(Nc2nc3nonc3nc2Nc2cccc(F)c2)c1 | 220.8 |  | 180
7 | Clc1ccc(Nc2nc3nonc3nc2Nc2ccc(Cl)cc2)cc1 | 190.4 |  | 270
8 | CCONc1nc2nonc2nc1NOCC | 100 | ND(Insoluble) | 
9 | c1ccc(Nc2nc3nonc3nc2Nc2ccccn2)nc1 |  | ND(Insoluble) | 
10 | FC(F)(F)CONc1nc2nonc2nc1NOCC(F)(F)F | 96.3 | ND(Insoluble) | 
11 | Ic1ccccc1Oc1nc2nonc2nc1Oc1ccccc1I | 98.8 | ND(Insoluble) | 
12 | Fc1ccc(Nc2nc3nonc3nc2Nc2ccc(F)cc2)cc1 | 204 |  | 460
13 | Fc1ccc(Nc2nc3nonc3nc2Nc2ccc(F)cc2F)c(F)c1 | 222.6 |  | 40
14 | Fc1ccccc1Oc1nc2nonc2nc1Oc1ccccc1F | 93 | ND(Insoluble) | 
